“And” between values parts separate entries of the source, which are not always exact repeats. Identical values can stand only once. “Also recorded” adds a separate entry of the source.
Assays:
[1] = system: mosquito larvae (Aedes aegypti); experiment: Mosquito larvae test; type: in vivo; settings: 24 hours
Experimental: Similarly, in a test using mosquito larvae (Aedes aegypti) as the insect test species, SC-7 gave 15% mortality and SC-8 gave 93% mortality at an application rate of 100 ppm. In this test, one ml of a solution of 1000 ppm of the test compound in 10% acetone - 90% water was added to 9 ml of water in a culture tube. Ten mosquito larvae were added, and mortality readings were taken 24 hours later.

mice [2] = experiment: Behavioral assay in mice (Campbell and Richter), sixteen behavioral signs; type: in vivo; settings: injected, after 30 minutes
Experimental: The behavioral assay in mice was carried out using the procedures of Campbell and Richter (D. E. S. Campbell and W. Richter, Acta Pharmacol. et Toxicol. 25, 345 (1967)). The method involved injection of five mice with the drug and obseving for sixteen behavioral signs after 30 minutes. A recognizable pattern will be apparent, characteristic of various CNS-activities: sympathomimetic, tranquilizer, etc.
Ten male Swiss mice (20-25 g) were divided into groups. One group was injected with physiological saline to serve as control. The other group was injected with 15 mg/Kg of benzene-partition sample (prepared as in Example 2) in suspension form (0.6 mg/ml) in physiological saline solution containing 0.5% carboxymethylcellulose. […] These are all considered as indicators of neuroleptic activity.

[3] = system: southern armyworm (Spodoptera eridania); experiment: Insecticidal activity against southern armyworm; type: in vivo; settings: both application rates, 1000 and 500 ppm, 14 days
Experimental: (§1) The present compounds were tested for insecticidal activity against cabbage looper (Trichoplusia ni [Hubner]), and southern armyworm (Spodoptera eridania) at application rates of 1000 and 500 ppm. The tests were conducted in petri dishes containing a solid food source in which the test compounds had been incorporated. The petri dishes containing the treated food source were infested with second instar larvae of southern armyworms or cabbage loopers. Ten larvae per replicate and two replicates per test rate were used. Mortality data were taken 14 days after infestation.

M. incognita = experiment: Effect on nematode motility; type: in vivo, Meloidogyne incognita; settings: 24 hours, of 300 juveniles; for Number of Motile Nematodes, Avg.: water 233.6
Experimental: In a separate test, 300 juveniles of M. incognita were placed in a container closed with a screen of openings 17 μm and exposed to various concentrations of the test compound. After 24 hours, the number of nematodes able to migrate downward (from the inverted container) were counted. Eight replicates were run for each sample, and the results were analyzed by Duncan's

mice [4] = experiment: Neuroleptic / CNS-depressant activity in experimental animals (general statements); type: in vivo
[5] = Acute toxicity (LD50) in mice, procedure of Turner; type: in vivo, male Swiss mice; settings: mouse, in vivo, ip; mice, intraperitoneal, 24 hours
mice [6] = experiment: Acute toxicity (LD50) in mice, procedure of Turner; type: in vivo, male Swiss mice
[7] = Potentiation of pentobarbital sleeping time; type: in vivo, mice; design: Sleeping Time, Treated: unit not given here
Experimental: SC-8 has the ability to potentiate the sedative activity of pentobarbital. The procedure employed is that of Turner (R. A. Turner, Screening Methods in Pharmacology, Academic Press, New York, p. 302 (1965)), in which three groups of mice were injected ip with the drug at three levels and a control group with saline. […] The sleeping time of each was measured as the interval between the loss and recovery of the righting reflex, and activity is defined as at least a 200% prolongation of sleeping time.

Solubility = type: physicochemical
[8] = system: cabbage looper (Trichoplusia ni [Hubner]); experiment: Insecticidal activity against cabbage looper; type: in vivo; settings: Trichoplusia ni, 336 h, second instar larvae, 14 days
Experimental: as §1

[9] = Suppression of aggressiveness in isolated mice; type: in vivo, male Swiss mice; settings: eighty minutes after injection; for % Inhibition of Aggressiveness: 2 mg/Kg
Experimental: They were not disturbed except for replacement of food. Under these conditions, about two thirds of the mice became aggressive as manifested by vicious attacks within one minute on a nonisolated male mouse placed in their cage. Such combative mice were divided into two groups. With one group held as the control, the mice in other group were injected with SC-8 at 2 or 1 mg/Kg. The mice were tested for aggressiveness before the injection and eighty minutes after the injection. If no fighting took place with a nonisolated mouse introduced into the cage, this was regarded as inhibition of aggressiveness (P. A. J. Janssen, A. H. Jageneau and C. J. E. Niemegeers; J. Pharmacol, Exp. Ther. 129, 471 (1960)). The experiment was repeated with SC-8 at 2 mg/Kg.

[10] = Morphine antagonism (Straub tail phenomenon); settings: SC-8 1.5 mg/Kg, morphine sulfate 20 mg/Kg ip
[11] = Antiamphetamine activity (method of Weissman et al., mice instead of rats); type: in vivo
Experimental: Neuroleptic drugs are said to bind to postsynaptic dopamine receptors in the brain, thereby blocking dopaminergic transmission. […] Based on this, an assay for possible neuroleptic activity was developed and is commonly used. […] 151, 339 (1966)), except that mice were used instead of rats. A comparison under the same conditions was also made of the antiamphetamine activity of a standard neuroleptic drug, haloperidol, which gave an ED50 value of 0.5 mg/Kg (Table 2).

## COc1ccc(C(O)C(C)Oc2ccc([C@@H]3O[C@@H](c4ccc(OC(C)C(O)c5ccc(OC)c(OC)c5)c(OC)c4)[C@@H](C)[C@@H]3C)cc2OC)cc1OC (stereo partly drawn) [SC-8, 2α,5β-bis[3-methoxy-4-{threo-3-hydroxy-3-(3,4-dimethoxyphenyl)}isopropoxyphenyl]-3α,4β-dimethyltetrahydrofuran]
[1]
  mortality at 100 ppm: 93%
Mice [2]
  behavioral signs: head drop with righting reflex; also recorded: decreased locomotion; also recorded: abduced hindlegs with righting reflex; also recorded: unsteady gait; also recorded: catalepsy
Mice [2]; from 37°
  lowering of body temperature from 37° to: 31 °
[3]
  insecticidal activity, southern armyworm: inactive
M. incognita; 1 ppm
  Number of Motile Nematodes, single replicates (1 to 8): 258 and 233 and 186 and 340 and 295 and 248 and 103 and 238
  Number of Motile Nematodes, Avg.: 237.6
M. incognita; 5 ppm
  Number of Motile Nematodes, single replicates (1 to 8): 113 and 294 and 223 and 236 and 264 and 256 and 205 and 211
  Number of Motile Nematodes, Avg.: 225.3
M. incognita; 10 ppm
  Number of Motile Nematodes, single replicates (1 to 8): 188 and 170 and 174 and 263 and 204 and 214 and 228
  Number of Motile Nematodes, Avg.: 201.4
M. incognita; 25 ppm
  Number of Motile Nematodes, single replicates (1 to 8): 67 and 85 and 97 and 56 and 99 and 120 and 131 and 84
  Number of Motile Nematodes, Avg.: 92.4
M. incognita; 50 ppm
  Number of Motile Nematodes, single replicates (1 to 8): 163 and 223 and 109 and 102 and 31 and 232 and 225 and 108
  Number of Motile Nematodes, Avg.: 149.1
Mice [4]; experimental animals / mice
  CNS-depressant activity: useful CNS-depressant activity
Mice [4]; mouse, in vivo
  neuroleptic activity: neuroleptically active
[5]
  LD50 at 24 h: 5.2 ± 0.2 mg/kg
Mice [6]; mice
  LD10: 4 mg/kg
Mice [6]; mice, oral, dose range of 10-20 mg/Kg
  toxicity by the oral route: toxic
Mice [6]; oral, inferred from oral toxicity at 10-20 mg/Kg
  absorbability following oral administration: ready absorbability
[7]; SC-8 0.01 mg/Kg ip, pentobarbital 40 mg/Kg
  % Increase of Sleeping Time: 175%
[7]; SC-8 0.01 mg/Kg ip, pentobarbital 40 mg/Kg, control 12.0
  Sleeping Time, Treated: 21.0
[7]; SC-8 0.06 mg/Kg ip, pentobarbital 40 mg/Kg
  % Increase of Sleeping Time: 217%
[7]; SC-8 0.06 mg/Kg ip, pentobarbital 40 mg/Kg, control 12.0
  Sleeping Time, Treated: 26.0
[7]; SC-8 0.125 mg/Kg ip, pentobarbital 40 mg/Kg
  % Increase of Sleeping Time: 158%
[7]; SC-8 0.125 mg/Kg ip, pentobarbital 40 mg/Kg, control 12.0
  Sleeping Time, Treated: 19.0
[7]; SC-8 0.25 mg/Kg ip, pentobarbital 40 mg/Kg
  % Increase of Sleeping Time: 304%
[7]; SC-8 0.25 mg/Kg ip, pentobarbital 40 mg/Kg, control 10.8
  Sleeping Time, Treated: 32.8
[7]; SC-8 0.4 mg/Kg ip, pentobarbital 42 mg/Kg
  % Increase of Sleeping Time: 280%
[7]; SC-8 0.4 mg/Kg ip, pentobarbital 42 mg/Kg, control 16
  Sleeping Time, Treated: 44.8
[7]; SC-8 0.5 mg/Kg ip, pentobarbital 40 mg/Kg
  % Increase of Sleeping Time: 357%
[7]; SC-8 0.5 mg/Kg ip, pentobarbital 40 mg/Kg, control 10.8
  Sleeping Time, Treated: 36.6
[7]; SC-8 1.0 mg/Kg ip, pentobarbital 40 mg/Kg
  % Increase of Sleeping Time: 300%
[7]; SC-8 1.0 mg/Kg ip, pentobarbital 40 mg/Kg, control 10.8
  Sleeping Time, Treated: 32.4
[7]; SC-8 4.0 mg/Kg ip, pentobarbital 42 mg/Kg
  % Increase of Sleeping Time: 857%
[7]; SC-8 4.0 mg/Kg ip, pentobarbital 42 mg/Kg, control 16
  Sleeping Time, Treated: 140
[7]; dose range 1.0-0.05 mg/Kg
  prolongation of pentobarbital-sleeping time (conclusion): significant prolongation
[7]; summary statement, no dose
  potentiating sedatives of the pentobarbital type (summary): significant activity
Solubility; alcohols, acetone, chloroform, benzene, ethyl acetate
  solubility in alcohols, acetone, chloroform, benzene and ethyl acetate: readily soluble
Solubility; ether
  solubility in ether: sparingly
Solubility; hexane or water
  solubility in hexane or water: very slightly
[8]; 500 ppm in food
  mortality at 500 ppm: 90%
[8]; 1000 ppm in food
  mortality at 1000 ppm: 100%
[9]; 1 mg/Kg, 3 mice
  Inhibition of Aggressiveness (in words): Slight
[9]; 3 mice
  % Inhibition of Aggressiveness: > 75%
[9]; 5 mice, repeat experiment
  % Inhibition of Aggressiveness: > 75%
[10]
  effect on morphine-induced Straub tail: counteracted this effect
[10]; before SC-8 40°
  Degree of Tail Elevation, After 20 min.: 10 °
  Degree of Tail Elevation, After 50 min.: 10 °
[11]; Mus musculus, mice, inhibition of amphetamine-induced agitation, stereotypy, body-hydration
  ED50: 0.2 mg/kg
[11]; mice, dose 0.03 mg/Kg
  % Inhibition (antiamphetamine activity): 20%
[11]; mice, dose 0.1 mg/Kg
  % Inhibition (antiamphetamine activity): 40%
[11]; mice, dose 0.3 mg/Kg
  % Inhibition (antiamphetamine activity): 60%
[11]; mice, dose 0.5 mg/Kg
  % Inhibition (antiamphetamine activity): 60%
[11]; mice, dose 1.0 mg/Kg
  % Inhibition (antiamphetamine activity): 70%
[11]; mice, dose 1.2 mg/Kg
  % Inhibition (antiamphetamine activity): 80%
[11]; mice, dose 1.5 mg/Kg
  % Inhibition (antiamphetamine activity): 80%
[11]; summary statement, no dose
  inhibiting hyperactivity, agitation, and other effects induced by CNS stimulants of the amphetamine class (summary): significant activity

— patent publication US4619943A, “Neolignans of Saururus cernuus L and analogues thereof” (priority 1984, dated 1986)
